Results published in patent US20040197834A1, “Method to increase expression of pgd2 receptors and assays for identifying modulators of prostaglandin d2 receptors” (priority 2001, published 2004).
“Also recorded” adds a separate entry of the source.

How the values were obtained:
[1] = test system: PGD2 receptors (CRTH2 and DP) on HL-60 membranes; assay: [3H]PGD2 radioligand binding assay on HL-60 cell membranes; conditions: for differentiation-induced increase in PGD2 binding competed away: butyric acid differentiated HL-60, Example 3; for tritiated PGD2 binding on membranes competed away: membranes from butyric acid-differentiated HL-60 cells, 1 uM unlabeled competitor, FIG. 2; for binding of labeled PGD2 to membranes: membranes from undifferentiated HL-60 cells
Experimental: (§1) Membranes were isolated from butyric acid-differentiated HL-60 or undifferentiated AML14.3D10 and used in the PGD2 binding assay in the presence or absence of various 1 uM of non-labeled receptor agonists described here below:
(§2) Specific binding of radioactive PGD2 to the membrane was measured and compared to the value obtained in the absence of competitor (ctrl=100% maximum binding).
(§3) HL-60 or AML14.3D10 cells are collected by centrifugation for 6 min at 300 g at 4° C., washed with PBS, centrifuged as before and suspended in 10 mM HEPES/KOH pH 7.4, 1 mM EDTA. The cells are disrupted by nitrogen cavitation (800 psi for 30 min. on ice) in the presence of protease inhibitors (2 mM AEBSF, 10 μM E-64, 100 μM leupeptin and 0.05 mg/ml pepstatin). Cell membrane is isolated by differential centrifugation at 4° C., first at 1000 g for 10 min then 160 000 g for 30 min. After centrifugation the pellet comprising the cell membrane is suspended in 10 mM HEPES/KOH pH 7.4, 1 mM EDTA, pH 7.4 buffer using Dounce homogenization.
(§4) For these assays, specific receptor binding is defined as total associated radioactivity minus the radioactivity measured in the presence of an excess of unlabeled competing ligand. Where possible, more than one competing ligand is used to define residual nonspecific binding. Ligand binding assays are performed using whole cells or cell membranes derived therefrom.
(§5) Radioligand binding assays are performed in 10 mM HEPES/KOH pH 7.4, 1 mM EDTA containing 10 mM MnCl2 and 0.8 nM [^3H]PGD2, in a final volume of 0.2 ml. The reaction is initiated by the addition of 250 μg of membrane protein, prepared as described above. Ligands in dimethylsulfoxide which is kept constant at 1% (v/v) of the final incubation volume are added. Non-specific binding is determined in the presence of 10 μM PGD2. Incubation is conducted for 60 min. at room temperature and is terminated by rapid filtration through GF/C filters prewetted in cold assay incubation buffer (no EDTA) using a Brandel™ harvester. The filter is then washed with 4 ml of the same buffer and residual radioligand bound to the filter is determined by liquid scintillation counting following equilibration in 5 ml Ultima Gold™ (Packard).

[2] = test system: PGD2 receptors (CRTH2 and DP) on AML14.3D10 membranes; assay: [3H]PGD2 radioligand binding assay on AML14.3D10 cell membranes; conditions: for differentiation-induced increase in PGD2 binding competed away: butyric acid differentiated AML14.3D10, Example 3; for tritiated PGD2 binding on membranes competed away: membranes from nondifferentiated or differentiated AML14.3D10, 1 uM unlabeled competitor, FIG. 2; for binding of labeled PGD2 to membranes: membranes from undifferentiated AML14.3D10 cells
Experimental: as §1, §2, §3, §4, §5

HL-60 cells = assay: Butyric acid induced differentiation of HL-60 cells, read out as PGD2 binding to membranes; type: cell-based; conditions: 0.4 mM butyric acid for 7 days
Experimental: (§6) For example, referring to FIG. 1, shown therein are the results of a binding assay, specifically the binding of radioactive PGD2 to membranes. The assay measures the amount of labeled […] bound to cell membranes derived from the herein disclosed cell lines. Briefly, AML14.3D10 and […] cell lines are incubated in the absence and/or presence of […] of butyric acid for 7 days. Membranes were thereafter isolated from the cells and used in aforementioned PGD2 binding assays.
(§7) On the first day of the experiment cells are split at 2×10^5 cells/ml and supplemented with 0.4 mM butyric acid. On the fourth day the cells are diluted to 2×10^5 cells/ml and the concentration of butyric acid is adjusted to 0.4 mM. The cells are harvested on the seventh day.
(§8) HL-60 or AML14.3D10 cells are collected by centrifugation for 6 min at 300 g at 4° C., washed with PBS, centrifuged as before and suspended in 10 mM HEPES/KOH pH 7.4, 1 mM EDTA. […]
(§9) Radioligand binding assays are performed in 10 mM HEPES/KOH pH 7.4, 1 mM EDTA containing 10 mM MnCl2 and 0.8 nM [^3H]PGD2, in a final volume of 0.2 ml. […] Non-specific binding is determined in the presence of 10 μM PGD2. […] The filter is then washed with 4 ml of the same buffer and residual radioligand bound to the filter is determined by liquid scintillation counting following equilibration in 5 ml Ultima Gold™ (Packard).

AML14.3D10 cells = assay: Butyric acid induced differentiation of AML14.3D10 cells, read out as PGD2 binding to membranes; type: cell-based; conditions: 0.4 mM butyric acid for 7 days
Experimental: as §6, §7, §8, §9

| SMILES | differentiation-induced increase in PGD2 binding competed away [1] | tritiated PGD2 binding on membranes competed away [1] | differentiation-induced increase in PGD2 binding competed away [2] | tritiated PGD2 binding on membranes competed away [2] | binding of labeled PGD2 to membranes [1] | binding of labeled PGD2 to membranes ([1]; listed as 3HPGD2) | binding of labeled PGD2 to membranes [2] | binding of labeled PGD2 to membranes ([2]; listed as 3HPGD2) | effect of butyric acid treatment on PGD2 binding to membranes (HL-60 cells) | effect of butyric acid treatment on PGD2 binding to membranes (AML14.3D10 cells) |
| --- | --- | --- | --- | --- | --- | --- | --- | --- | --- | --- |
| O=C(O)CCCCCCC1C(=O)NC(=O)N1CCC(O)C1CCCCC1 (centres unmarked) [BW245C] | about 10% | about 10% | about 10% | about 10% | – | – | – | – | – | – |
| CCCCCC(=O)CCC1C(=O)CC(O)C1C/C=C\CCCC(=O)O (centres unmarked) [DK-PGD2, 13,14-dihydro-15-keto-PGD2] | About 90% | about 90% | About 90% | about 90% | – | – | – | – | – | – |
| CCCCC[C@H](O)/C=C/[C@H]1C(=O)C[C@H](O)[C@@H]1C/C=C\CCCC(=O)O [PGD2, Prostaglandin D2] | – | – | – | – | minimal amount of PGD2 binding | does not bind | appreciable level of PGD2 binding | significant level of binding | – | – |
| CCCC(=O)O [butyric acid] | – | – | – | – | – | – | – | – | significant increase in PGD2 binding; also recorded: acquired the capacity to bind | significant increase in PGD2 binding; also recorded: increased binding of PGD2 |
